Reference: the NIST ThermoML archive (doi:10.1021/acs.jced.8b00132)
Values joined by “and” are separate entries in the source; they are usually repeats but may differ in a detail not shown here. Equal entries are not always repeated.

Details: transient hot wire

O=C(C(F)(F)C(F)(F)F)C(F)(C(F)(F)F)C(F)(F)F [dodecafluoro-2-methylpentan-3-one]
Details	thermal conductivity
359 K, 91 kPa, Gas	0.0172 W/m/K and 0.01701 W/m/K
359.01 K, 17992 kPa, Liquid	0.05723 W/m/K
359.02 K, 33597 kPa, Liquid	0.06346 W/m/K
359.03 K, 33605 kPa, Liquid	0.06342 W/m/K
359.05 K, 56095 kPa, Liquid	0.07054 W/m/K
359.05 K, 56112 kPa, Liquid	0.07057 W/m/K
359.07 K, 256 kPa, Gas	0.0162 W/m/K
359.07 K, 257 kPa, Gas	0.01618 W/m/K
359.07 K, 11964 kPa, Liquid	0.05443 W/m/K
359.07 K, 11965 kPa, Liquid	0.05441 W/m/K
359.13 K, 188 kPa, Gas	0.01636 W/m/K
359.13 K, 24956 kPa, Liquid	0.06016 W/m/K
359.14 K, 7109 kPa, Liquid	0.05182 W/m/K
359.14 K, 7110 kPa, Liquid	0.05179 W/m/K
359.14 K, 24956 kPa, Liquid	0.06017 W/m/K
359.14 K, 43845 kPa, Liquid	0.06681 W/m/K
359.14 K, 43855 kPa, Liquid	0.06693 W/m/K
359.16 K, 26 kPa, Gas	0.01687 W/m/K
359.16 K, 67834 kPa, Liquid	0.07385 W/m/K
359.17 K, 67856 kPa, Liquid	0.07389 W/m/K
359.19 K, 3417 kPa, Liquid	0.04968 W/m/K
359.19 K, 3419 kPa, Liquid	0.04955 W/m/K
359.22 K, 17993 kPa, Liquid	0.05729 W/m/K and 0.05726 W/m/K
359.22 K, 33590 kPa, Liquid	0.06336 W/m/K
359.23 K, 33591 kPa, Liquid	0.06345 W/m/K
359.24 K, 91 kPa, Gas	0.01701 W/m/K and 0.01691 W/m/K
359.24 K, 56073 kPa, Liquid	0.07065 W/m/K
359.24 K, 56086 kPa, Liquid	0.07061 W/m/K
359.27 K, 352 kPa, Liquid	0.04733 W/m/K and 0.04736 W/m/K
359.28 K, 352 kPa, Liquid	0.04735 W/m/K
359.29 K, 352 kPa, Liquid	0.04741 W/m/K
359.29 K, 11963 kPa, Liquid	0.05419 W/m/K
359.29 K, 11964 kPa, Liquid	0.05442 W/m/K
359.3 K, 256 kPa, Gas	0.01611 W/m/K
359.31 K, 256 kPa, Gas	0.01615 W/m/K
359.32 K, 43840 kPa, Liquid	0.06681 W/m/K
359.33 K, 24951 kPa, Liquid	0.06022 W/m/K
359.34 K, 24951 kPa, Liquid	0.06017 W/m/K
359.34 K, 43843 kPa, Liquid	0.06687 W/m/K
359.35 K, 67807 kPa, Liquid	0.07425 W/m/K
359.36 K, 7099 kPa, Liquid	0.0518 W/m/K
359.36 K, 67822 kPa, Liquid	0.07392 W/m/K
359.37 K, 187 kPa, Gas	0.01646 W/m/K
359.37 K, 7108 kPa, Liquid	0.05182 W/m/K
359.38 K, 187 kPa, Gas	0.01639 W/m/K
359.4 K, 26 kPa, Gas	0.01671 W/m/K
359.41 K, 26 kPa, Gas	0.01672 W/m/K
359.42 K, 3418 kPa, Liquid	0.04952 W/m/K
359.42 K, 3419 kPa, Liquid	0.04953 W/m/K
359.42 K, 33575 kPa, Liquid	0.06335 W/m/K
359.43 K, 33582 kPa, Liquid	0.06336 W/m/K
359.43 K, 56047 kPa, Liquid	0.07056 W/m/K
359.44 K, 17994 kPa, Liquid	0.05721 W/m/K
359.44 K, 18001 kPa, Liquid	0.05746 W/m/K
359.44 K, 56060 kPa, Liquid	0.07057 W/m/K
359.5 K, 91 kPa, Gas	0.01707 W/m/K
359.51 K, 91 kPa, Gas	0.017 W/m/K
359.51 K, 11963 kPa, Liquid	0.05441 W/m/K
359.52 K, 352 kPa, Liquid	0.04737 W/m/K and 0.04738 W/m/K
359.52 K, 353 kPa, Liquid	0.04735 W/m/K
359.52 K, 11964 kPa, Liquid	0.05441 W/m/K
359.53 K, 352 kPa, Liquid	0.04692 W/m/K
359.54 K, 43829 kPa, Liquid	0.06685 W/m/K
359.54 K, 43830 kPa, Liquid	0.06684 W/m/K
359.55 K, 24946 kPa, Liquid	0.06014 W/m/K
359.55 K, 24949 kPa, Liquid	0.06011 W/m/K
359.56 K, 256 kPa, Gas	0.01628 W/m/K
359.57 K, 256 kPa, Gas	0.01631 W/m/K
359.6 K, 7096 kPa, Liquid	0.05174 W/m/K
359.6 K, 7098 kPa, Liquid	0.05175 W/m/K
359.63 K, 33565 kPa, Liquid	0.06333 W/m/K
359.64 K, 187 kPa, Gas	0.01647 W/m/K and 0.01644 W/m/K
359.64 K, 33572 kPa, Liquid	0.06333 W/m/K
359.66 K, 18006 kPa, Liquid	0.0572 W/m/K
359.67 K, 3420 kPa, Liquid	0.04948 W/m/K
359.67 K, 3421 kPa, Liquid	0.04951 W/m/K
359.67 K, 18004 kPa, Liquid	0.05719 W/m/K
359.7 K, 26 kPa, Gas	0.0168 W/m/K and 0.01681 W/m/K
359.75 K, 11967 kPa, Liquid	0.05434 W/m/K
359.76 K, 11965 kPa, Liquid	0.05435 W/m/K
359.77 K, 353 kPa, Liquid	0.04733 W/m/K
359.78 K, 352 kPa, Liquid	0.0473 W/m/K and 0.04737 W/m/K
359.78 K, 353 kPa, Liquid	0.0473 W/m/K
359.78 K, 24941 kPa, Liquid	0.06008 W/m/K
